According to patent publication US20250276033A1, “COMPOSITIONS FOR IMPROVING KIDNEY FUNCTION IN PATIENTS WITH HEPATORENAL SYNDROME” (Mallinckrodt Pharmaceuticals Ireland Limited, priority 2022, published 2025):
Like-named read-outs stand apart in the source and are kept apart here. Where a SMILES comes first, the peptide text is derived from it. Bridges are numbered along the chain shown (N, C = ends).

Legend:
[1] = tested on: pregnant women; settings: single intravenous or intranasal dose, first trimester; cited from earlier work
[2] = tested on: pregnant guinea pigs; settings: doses lower than the maximum recommended human dose of 4 mg/day; cited from earlier work
[3] = tested on: patients with HRS-1; assay: ACLF grade and respiratory failure with terlipressin, double-blind placebo-controlled trial (Example 3); type: in vivo, human
Description: In FIG. 6B, the incidence of respiratory failure was based on CLIF-SOFA score definition of respiratory failure.
The study was a double-blind placebo-controlled trial. […] HRS-1 was defined as rapidly rising serum creatinine (SCr) to ≥2.25 mg/dl in <14 days without response to volume challenge or evidence of structural renal disease.
All patients were assessed for organ failure (OF) per EASL-CLIF criteria and then classified into grades of acute-on-chronic liver failure (ACLF). All patients had at minimum grade 1 ACLF due to the presence of HRS-1; grades 2 and 3 ACLF represent 2 or 3 OFs respectively. Patients were separated into into grade≤2 and grade 3 ACLF subgroups.

[4] = tested on: patients with HRS-1; assay: CONFIRM randomized, placebo-controlled, double-blind study of terlipressin plus albumin; settings: for between-group difference in the incidence of respiratory failure SAEs / between-group difference in the incidence of respiratory failure fatal AEs: terlipressin minus placebo
Description: In particular, HRS-1 was defined based on modified prior criteria outlined by the International Club of Ascites (ICA), as rapidly deteriorating renal function to SCr≥2.25 mg/dl, with actual or projected doubling of SCr within 2 weeks, without improvement in renal function (<20% decrease in SCr 48 hours after both diuretic withdrawal and albumin-fluid challenge) in adult patients with cirrhosis and ascites. […] Treatment was continued to Day 14 unless the following occurred: verified HRS reversal (VHRSR), renal replacement therapy (RRT), liver transplantation (LT) or SCr at or above baseline (BL) at Day 4. VHRSR, the primary endpoint, was defined as 2 consecutive SCr values≤1.5 mg/dl, at least 2 hours apart, with subjects alive without RRT for at least 10 days after the second SCr≤1.5 mg/dL; HRS reversal (HRSR) was a decrease in SCr to ≤1.5 mg/dL. Secondary end points included HRS reversal (any SCr value 1.5 mg/dL or less during treatment), HRS reversal without RRT by day 30, HRS reversal in patients with systemic inflammatory response syndrome, and verified HRS reversal without recurrence by day 30.
The patients were at least 18 years of age, with cirrhosis, ascites, and rapidly progressive renal failure, with a SCr doubling to at least 2.25 mg/dL within 14 days. Major exclusion criteria included SCr of greater than 7.0 mg/dL, one or more large-volume paracenteses of 4 L or more within 2 days of randomization, evidence of parenchymal renal diseases or obstructive uropathy, or presence of sepsis and/or uncontrolled bacterial infection. Patients with severe cardiovascular disease or recent (within 4 weeks) renal replacement therapy (RRT) were excluded.
300 subjects were enrolled in the study. […] Patients were stratified by qualifying SCr (less than 3.4 mg/dL or 3.4 mg/dL or greater) and pre-enrollment large-volume paracentesis (at least one single event of 4 L or greater, or less than 4 L within 3 to 14 days prior to randomization).
A baseline SCr value was assessed before the patients received the assigned treatment. […] In keeping with current guidelines, it was strongly recommended that albumin (1 g/kg to a maximum of 100 g, on day 1 and 20 to 40 g/day thereafter) be administered to all subjects. If SCr decreased <30% from the baseline value on Day 4, after a minimum of 10 doses of study drug, dose increase to 2 mg every 6 hours (±30 minutes) (8 mg/day) was mandated, except in subjects with coronary artery disease or in the setting of circulatory overload, pulmonary edema, or bronchospasm. Dose resumption was permitted after interruption for adverse events except for cardiac or mesenteric ischemia, for which treatment was permanently discontinued.
The primary efficacy end point was the incidence of verified HRS reversal, defined as the percentage of patients with two consecutive SCr values no greater than 1.5 mg/dl at least 2 hours apart, while remaining alive without RRT for at least 10 days after achieving verified HRS reversal, while excluding SCr values after RRT, transjugular intrahepatic portosystemic shunt, liver transplant, or open-label vasopressor from primary end point analysis.
Secondary efficacy end points included incidence of HRS reversal, defined as the percentage of patients with an on-treatment SCr value of 1.5 mg/dl or less; durability of HRS reversal, defined as the percentage of patients with HRS reversal without RRT to day 30; incidence of HRS reversal among patients with systemic inflammatory response syndrome; and incidence of verified HRS reversal without HRS recurrence by day 30.

[5] = tested on: mouse; assay: In vivo mouse micronucleus assay
[6] = Pharmacokinetics and excretion in healthy subjects
[7] = tested on: QTc interval; assay: Cardiac electrophysiology in 41 patients with HRS-1; type: in vivo, human; settings: 1 mg terlipressin acetate every 6 hours up to 14 days; Fridericia correction
Excerpt: Increases of the mean QTc interval of <10 ms were reported.

[8] = background statement; cited from earlier work
[9] = tested on: CYP enzymes; assay: CYP inhibition and induction in human liver microsomes; type: in vitro ADME
Excerpt: (§1) No significant drug-drug interactions are anticipated with terlipressin (TERLIVAZ).

[10] = Pharmacokinetic modeling with sparse PK samples from 69 patients with HRS-1; settings: for AUC(0-t) / Cmax: iv
[11] = tested on: bacterial; assay: In vitro bacterial reverse mutation assay
[12] = tested on: rabbits; settings: increased resorptions, implantation loss, fetal anomalies and deformities; cited from earlier work
[13] = tested on: patients; settings: voluntary reports; cited from earlier work
[14] = tested on: mammalian cell (CHO); assay: In vitro mammalian cell (CHO) chromosome aberration assay
[15] = Metabolism in blood or plasma
Excerpt: Once formed, lysine-vasopressin is metabolized by body tissue via various peptidase-mediated routes.

[16] = tested on: human ABC and SLC transporters; assay: Transporter inhibition and substrate studies; type: in vitro ADME
Excerpt: as §1

[17] = human, in vivo
[18] = clinical; settings: human, in vivo; for AUC(0-t) / Cmax: iv

In the case of NCCCC[C@H](NC(=O)[C@@H]1CCCN1C(=O)[C@@H]1CSSC[C@H](NC(=O)CNC(=O)CNC(=O)CN)C(=O)N[C@@H](Cc2ccc(O)cc2)C(=O)N[C@@H](Cc2ccccc2)C(=O)N[C@@H](CCC(N)=O)C(=O)N[C@@H](CC(N)=O)C(=O)N1)C(=O)NCC(N)=O [Terlipressin, N—[N—(N-glycylglycyl)glycyl]-8-L-lysinevasopressin] (H-GGGCYFQNCPKG-NH2; disulfide 4-9 (inferred)), the effect in pregnancy [1] is listed as “induced uterine contractions and endometrial ischemia”, the reproductive toxicity finding [2] is listed as “marked decrease in blood flow to the uterus and placenta” and the “percent of patients with respiratory failure” value ([3]; ACLF 3, FIG. 6C, investigator reported) is listed as “much higher than placebo”. The “incidence of respiratory failure, baseline to end of treatment” value ([3]; FIGS. 6A-6B, CLIF-SOFA definition) was “increased incidence of respiratory failure”, the “Treatment discontinuation due to adverse events” value ([4]; 24/200 patients) was 12.0% and the “most common adverse events that led to discontinuation” value ([4]; in vivo) was “respiratory failure, abdominal pain, and intestinal ischemia/obstruction”. The “subjects listed at baseline who did not receive a transplant and died by Day 90 (pre-transplant mortality)” value ([4]; mitigated population, 4 subjects) was 11.4%, the “AE leading to death up to 30 days post-treatment: Respiratory failure” value ([4]; mitigated population, N = 132) was 5.3 % of Subjects and the “Any AE leading to death up to 30 days post-treatment” value (“Any AE leading to death up” below) ([4]; mitigated population, N = 132) was 34.1 % of Subjects. For the same compound, the “Death by Day 30” value ([4]; mitigated population, N = 132) was 31.8 % of Subjects, the “Death by Day 60” value ([4]; mitigated population, N = 132) was 40.2 % of Subjects and the “Death by Day 90” value ([4]; mitigated population, N = 132) was 44.7 % of Subjects. For the same compound, the “Serior Adverse Events” value ([4]; mitigated population, N = 132) was 61.4 % of Subjects, the “Serious adverse events: Respiratory failure” value ([4]; mitigated population, N = 132) was 9.8 % of Subjects and the “Any AE leading to death up” value ([4]; mitigated population, N = 132, listed as terlipressin) was 31.8 % of Subjects. The “subjects listed at baseline who did not receive a transplant and died by Day 90 (pre-transplant mortality)” value ([4]; overall population, 12 subjects) was 21.4%, the “AE leading to death up to 30 days post-treatment: Respiratory failure” value ([4]; overall population, N = 200) was 8.5 % of Subjects and the “Any AE leading to death up” value ([4]; overall population, N = 200) was 41.5 % of Subjects. The “Death by Day 30” value ([4]; overall population, N = 200) was 39.0 % of Subjects, the “Death by Day 60” value ([4]; overall population, N = 200) was 47.0 % of Subjects and the “Death by Day 90” value ([4]; overall population, N = 200) was 51.0 % of Subjects. For the same compound, the “Serior Adverse Events” value ([4]; overall population, N = 200) was 65.0 % of Subjects, the “Serious adverse events: Respiratory failure” value ([4]; overall population, N = 200) was 13.5 % of Subjects and the “Any AE leading to death up” value ([4]; overall population, N = 200, listed as terlipressin) was 39.0 % of Subjects. The “Adverse reaction: Abdominal pain” value ([4]; patients (percent), N = 200) was 39 (19.5), the “Adverse reaction: Bradycardia” value ([4]; patients (percent), N = 200) was 10 (5.0) and the “Adverse reaction: Diarrhea” value ([4]; patients (percent), N = 200) was 26 (13.0). The “Adverse reaction: Dyspnea” value ([4]; patients (percent), N = 200) was 25 (12.5), the “Adverse reaction: Fluid overload” value ([4]; patients (percent), N = 200) was 17 (8.5) and the “Adverse reaction: Nausea” value ([4]; patients (percent), N = 200) was 32 (16.0). For the same compound, the “Adverse reaction: Pleural effusion” value ([4]; patients (percent), N = 200) was 11 (5.5), the “Adverse reaction: Respiratory failure” value ([4]; patients (percent), N = 200) was 31 (15.5) and the “Adverse reaction: Sepsis” value ([4]; patients (percent), N = 200) was 11 (5.5). The “Adverse reaction: Ischemia-related events” value ([4]; patients (percent), N = 200, skin discoloration, cyanosis, ischemia and intestinal ischemia) was 9 (4.5), the “serious or fatal respiratory failure” value ([4]; primary clinical trial) was 14% and the “between-group difference in the incidence of respiratory failure SAEs” value ([4]; mitigated population) was 2.8%. The “between-group difference in the incidence of respiratory failure fatal AEs” value ([4]; mitigated population) was 3.9%, the “between-group difference in the incidence of respiratory failure fatal AEs” value ([4]; overall population) was 7.5% and the “between-group difference in the incidence of respiratory failure SAEs” value ([4]; overall study population) was 8.4%. For the same compound, the mutagenicity / clastogenicity [5] was “not mutagenic or clastogenic”, the “dose-dependent changes in the elimination rate constant” value [6] was “no dose-dependent changes” and the pharmacokinetic linearity [6] was “linear pharmacokinetics”. The “Increases of the mean QTc interval” value [7] was under 10 ms, the “QTc changes from baseline” value [7] was “No clinically meaningful changes from baseline” and the duration of action [8] was 2 to 10 h. For the same compound, the half-life [8] was 6 h, the “direct-, time-, or metabolism dependent inhibitor and inducer of CYP enzymes” value [9] was “little or no evidence” and the “median Cave at steady state” value ([10]; 1 mg IV injection of terlipressin acetate) was 14.2 ng/mL. The “mean Cave” value ([10]; 1 mg dose of terlipressin acetate IV) was “about 14.2 ng/ml”, the Vd ([10]; human, in vivo) was 6.3 L and the clearance ([10]; human, in vivo, 1 mg, clearance (derived typical population PK parameter), 1 mg terlipressin acetate) was 457 mL/min. It also gave a clearance ([10]; human, in vivo, clearance, typical population PK parameter (range)) of 413 to 518 mL/min, an AUC(0-t) ([10]; human, in vivo, 1 mg, AUC24h (range), 1 mg dose of terlipressin acetate IV) of 61.2 to 246 ng·h/mL and a Cmax ([10]; human, in vivo, 1 mg, Cmax (range), 1 mg dose of terlipressin acetate IV) of 37.1 to 143 ng/mL. It also gave an AUC(0-t) ([10]; human, in vivo, 1 mg, mean AUC24h, 1 mg dose of terlipressin acetate IV) of about 123 ng·h/mL, a Cmax ([10]; human, in vivo, 1 mg, mean Cmax, 1 mg dose of terlipressin acetate IV) of about 70.5 ng/mL and an AUC(0-t) ([10]; human, in vivo, 1 mg, median AUC24h at steady state, 1 mg IV injection of terlipressin acetate) of 123 ng·h/mL. For the same compound, the Cmax ([10]; human, in vivo, 1 mg, median Cmax at steady state, 1 mg IV injection of terlipressin acetate) was 70.5 ng/mL, the half-life ([10]; human, in vivo, terminal half-life) was about 0.9 h and the mutagenicity / clastogenicity [11] was “not mutagenic or clastogenic”. For the same compound, the reproductive toxicity finding [12] was “embryotoxic and teratogenic”, the “Adverse reactions reported from postmarketing experience” value [13] was “headache hyponatremia, skin necrosis and gangrene” and the mutagenicity / clastogenicity [14] was “not mutagenic or clastogenic”. The “metabolism in blood or plasma” value [15] was “not metabolized in blood or plasma” and the “inhibitor and substrate of human ABC and SLC transporters” value [16] was “little or no evidence”.

For NC(=O)CC[C@@H]1NC(=O)[C@H](Cc2ccccc2)NC(=O)[C@H](Cc2ccc(O)cc2)NC(=O)[C@@H](N)CSSC[C@@H](C(=O)N2CCC[C@H]2C(=O)N[C@@H](CCCN=C(N)N)C(=O)NCC(N)=O)NC(=O)[C@H](CC(N)=O)NC1=O [vasopressin], the duration of action [8] is given as 0.5 to 1 h and the half-life [8] is given as 0.1 h.

In the case of NCCCC[C@H](NC(=O)[C@@H]1CCCN1C(=O)[C@@H]1CSSC[C@H](N)C(=O)N[C@@H](Cc2ccc(O)cc2)C(=O)N[C@@H](Cc2ccccc2)C(=O)N[C@@H](CCC(N)=O)C(=O)N[C@@H](CC(N)=O)C(=O)N1)C(=O)NCC(N)=O [lysine-vasopressin], the pharmacokinetic linearity [17] is reported as “linear pharmacokinetics”, the Vd [18] is reported as 1370 L and the clearance ([18]; 1 mg, clearance (derived typical population PK parameter)) is reported as 5300 mL/min. It also gave a clearance ([18]; clearance, typical population PK parameter (range)) of 4720 to 6050 mL/min, an AUC(0-t) ([18]; 1 mg, AUC24h (range)) of 3.78 to 33.5 ng·h/mL and a Cmax ([18]; 1 mg, Cmax (range)) of 0.4 to 3.36 ng/mL. For the same compound, the AUC(0-t) ([18]; 1 mg, mean AUC24h) was 11.2 ng·h/mL, the Cmax ([18]; 1 mg, mean Cmax) was about 1.2 ng/mL and the AUC(0-t) ([18]; 1 mg, median AUC24h at steady state) was 11.2 ng·h/mL. It also gave a Cmax ([18]; 1 mg, median Cmax at steady state) of 1.2 ng/mL and a half-life ([18]; terminal half-life) of about 3 h.
